# Reference: ChEMBL document CHEMBL1147144, “Novel styrylpyridines as probes for SPECT imaging of amyloid plaques” (J Med Chem, 2007)
# How the values were obtained:
# Heart [1] = assay: Biodistribution in ICR mouse heart at 5 to 10 uCi, iv after 2 mins; type: ADME, organism-based; settings: in vivo
# Heart [2] = assay: Biodistribution in ICR mouse heart at 5 to 10 uCi, iv after 30 mins; type: ADME, organism-based; settings: in vivo, 0.5 h
# Heart [3] = assay: Biodistribution in ICR mouse heart at 5 to 10 uCi, iv after 1 hr; type: ADME, organism-based; settings: in vivo
# Kidney [4] = assay: Biodistribution in ICR mouse kidney at 5 to 10 uCi, iv after 2 hrs; type: ADME, organism-based; settings: in vivo
# Spleen [5] = assay: Biodistribution in ICR mouse spleen at 5 to 10 uCi, iv after 2 mins; type: ADME, organism-based; settings: in vivo
# Spleen [6] = assay: Biodistribution in ICR mouse spleen at 5 to 10 uCi, iv after 30 mins; type: ADME, organism-based; settings: in vivo, 0.5 h
# Heart [7] = assay: Biodistribution in ICR mouse heart at 5 to 10 uCi, iv after 2 hrs; type: ADME, organism-based; settings: in vivo
# Muscle tissue [8] = assay: Biodistribution in ICR mouse muscle at 5 to 10 uCi, iv after 2 mins; type: ADME, organism-based; settings: in vivo
# Muscle tissue [9] = assay: Biodistribution in ICR mouse muscle at 5 to 10 uCi, iv after 30 mins; type: ADME, organism-based; settings: in vivo, 0.5 h
# Muscle tissue [10] = assay: Biodistribution in ICR mouse muscle at 5 to 10 uCi, iv after 1 hr; type: ADME, organism-based; settings: in vivo
# Muscle tissue [11] = assay: Biodistribution in ICR mouse muscle at 5 to 10 uCi, iv after 2 hrs; type: ADME, organism-based; settings: in vivo
# Lung [12] = assay: Biodistribution in ICR mouse lung at 5 to 10 uCi, iv after 2 mins; type: ADME, organism-based; settings: in vivo
# Lung [13] = assay: Biodistribution in ICR mouse lung at 5 to 10 uCi, iv after 30 mins; type: ADME, organism-based; settings: in vivo, 0.5 h
# Lung [14] = assay: Biodistribution in ICR mouse lung at 5 to 10 uCi, iv after 1 hr; type: ADME, organism-based; settings: in vivo
# Lung [15] = assay: Biodistribution in ICR mouse lung at 5 to 10 uCi, iv after 2 hrs; type: ADME, organism-based; settings: in vivo
# Kidney [16] = assay: Biodistribution in ICR mouse kidney at 5 to 10 uCi, iv after 2 mins; type: ADME, organism-based; settings: in vivo
# Kidney [17] = assay: Biodistribution in ICR mouse kidney at 5 to 10 uCi, iv after 30 mins; type: ADME, organism-based; settings: in vivo, 0.5 h
# Kidney [18] = assay: Biodistribution in ICR mouse kidney at 5 to 10 uCi, iv after 1 hr; type: ADME, organism-based; settings: in vivo
# Spleen [19] = assay: Biodistribution in ICR mouse spleen at 5 to 10 uCi, iv after 1 hr; type: ADME, organism-based; settings: in vivo
# Spleen [20] = assay: Biodistribution in ICR mouse spleen at 5 to 10 uCi, iv after 2 hrs; type: ADME, organism-based; settings: in vivo
# Liver [21] = assay: Biodistribution in ICR mouse liver at 5 to 10 uCi, iv after 2 mins; type: ADME, organism-based; settings: in vivo
# Liver [22] = assay: Biodistribution in ICR mouse liver at 5 to 10 uCi, iv after 30 mins; type: ADME, organism-based; settings: in vivo, 0.5 h
# Liver [23] = assay: Biodistribution in ICR mouse liver at 5 to 10 uCi, iv after 1 hr; type: ADME, organism-based; settings: in vivo
# Liver [24] = assay: Biodistribution in ICR mouse liver at 5 to 10 uCi, iv after 2 hrs; type: ADME, organism-based; settings: in vivo
# Zone of skin [25] = assay: Biodistribution in ICR mouse skin at 5 to 10 uCi, iv after 2 mins; type: ADME, organism-based; settings: in vivo
# Zone of skin [26] = assay: Biodistribution in ICR mouse skin at 5 to 10 uCi, iv after 30 mins; type: ADME, organism-based; settings: in vivo, 0.5 h
# Zone of skin [27] = assay: Biodistribution in ICR mouse skin at 5 to 10 uCi, iv after 1 hr; type: ADME, organism-based; settings: in vivo
# Zone of skin [28] = assay: Biodistribution in ICR mouse skin at 5 to 10 uCi, iv after 2 hrs; type: ADME, organism-based; settings: in vivo
# Brain [29] = assay: Biodistribution in ICR mouse brain at 5 to 10 uCi, iv after 2 mins; type: ADME, organism-based; settings: in vivo
# Brain [30] = assay: Biodistribution in ICR mouse brain at 5 to 10 uCi, iv after 30 mins; type: ADME, organism-based; settings: in vivo, 0.5 h
# Brain [31] = assay: Biodistribution in ICR mouse brain at 5 to 10 uCi, iv after 1 hr; type: ADME, organism-based; settings: in vivo
# Brain [32] = assay: Biodistribution in ICR mouse brain at 5 to 10 uCi, iv after 2 hrs; type: ADME, organism-based; settings: in vivo
# Thyroid gland [33] = assay: Biodistribution in ICR mouse thyroid at 5 to 10 uCi, iv after 2 mins; type: ADME, organism-based; settings: in vivo
# Thyroid gland [34] = assay: Biodistribution in ICR mouse thyroid at 5 to 10 uCi, iv after 30 mins; type: ADME, organism-based; settings: in vivo, 0.5 h
# Thyroid gland [35] = assay: Biodistribution in ICR mouse thyroid at 5 to 10 uCi, iv after 1 hr; type: ADME, organism-based; settings: in vivo
# Thyroid gland [36] = assay: Biodistribution in ICR mouse thyroid at 5 to 10 uCi, iv after 2 hrs; type: ADME, organism-based; settings: in vivo
# Brain [37] = assay: Ratio of drug distribution in brain after 2 mins to 30 mins in ICR mouse at 5 to 10 uCi, iv; type: ADME, organism-based; settings: in vivo
# [38] = Partition coefficient, log P at pH 7.4; type: physicochemical; settings: octanol/water
# Blood [39] = assay: Biodistribution in ICR mouse blood at 5 to 10 uCi, iv after 2 mins; type: ADME, organism-based; settings: in vivo
# Blood [40] = assay: Biodistribution in ICR mouse blood at 5 to 10 uCi, iv after 30 mins; type: ADME, organism-based; settings: in vivo, 0.5 h
# Blood [41] = assay: Biodistribution in ICR mouse blood at 5 to 10 uCi, iv after 1 hr; type: ADME, organism-based; settings: in vivo
# Blood [42] = assay: Biodistribution in ICR mouse blood at 5 to 10 uCi, iv after 2 hrs; type: ADME, organism-based; settings: in vivo
smiles,measurement,setting,value
CN(C)c1ccc(/C=C/c2cnc(OCCOCCOCCF)c([125I])c2)cc1,Drug uptake,Heart [1],12.76 % ID/g
same,Drug uptake,Heart [2],1.63 % ID/g
same,Drug uptake,Heart [3],0.97 % ID/g
same,Drug uptake,Kidney [4],1.71 % ID/g
same,Drug uptake,Spleen [5],4.47 % ID/g
same,Drug uptake,Spleen [6],1.42 % ID/g
same,Drug uptake,Heart [7],0.73 % ID/g
same,Drug uptake,Muscle tissue [8],0.9 % ID/g
same,Drug uptake,Muscle tissue [9],1 % ID/g
same,Drug uptake,Muscle tissue [10],0.59 % ID/g
same,Drug uptake,Muscle tissue [11],0.53 % ID/g
same,Drug uptake,Lung [12],10.1 % ID/g
same,Drug uptake,Lung [13],2.5 % ID/g
same,Drug uptake,Lung [14],1.62 % ID/g
same,Drug uptake,Lung [15],1.33 % ID/g
same,Drug uptake,Kidney [16],16.6 % ID/g
same,Drug uptake,Kidney [17],3.32 % ID/g
same,Drug uptake,Kidney [18],2.3 % ID/g
same,Drug uptake,Spleen [19],0.99 % ID/g
same,Drug uptake,Spleen [20],0.79 % ID/g
same,Drug uptake,Liver [21],22.2 % ID/g
same,Drug uptake,Liver [22],9.54 % ID/g
same,Drug uptake,Liver [23],5.34 % ID/g
same,Drug uptake,Liver [24],5.62 % ID/g
same,Drug uptake,Zone of skin [25],0.54 % ID/g
same,Drug uptake,Zone of skin [26],1.47 % ID/g
same,Drug uptake,Zone of skin [27],1.59 % ID/g
same,Drug uptake,Zone of skin [28],1.23 % ID/g
same,Drug uptake,Brain [29],4.03 % ID/g
same,Drug uptake,Brain [30],1.93 % ID/g
same,Drug uptake,Brain [31],0.68 % ID/g
same,Drug uptake,Brain [32],0.26 % ID/g
same,Drug uptake,Thyroid gland [33],3.89 % ID/g
same,Drug uptake,Thyroid gland [34],16.2 % ID/g
same,Drug uptake,Thyroid gland [35],24.2 % ID/g
same,Drug uptake,Thyroid gland [36],60.8 % ID/g
same,Ratio,Brain [37],2.09
same,logD,[38],2.2
same,Drug uptake,Blood [39],2.7 % ID/g
same,Drug uptake,Blood [40],2.05 % ID/g
same,Drug uptake,Blood [41],1.65 % ID/g
same,Drug uptake,Blood [42],1.45 % ID/g
